In publication PMC8887546, “Design and Synthesis of Brain Penetrant Glycopeptide Analogues of PACAP With Neuroprotective Potential for Traumatic Brain Injury and Parkinsonism” (Frontiers in drug discovery, 2022):

System: Sprague Dawley rats, 6-OHDA lesion
Assay: Amphetamine-induced rotations, moderate 6-OHDA hemi-parkinsonian rat model (study 2)
Format: in vivo
Settings: more severe (40%) lesion, three injections 15 mg/kg i.p., vs vehicle
Method: Rats were treated with 2LS98Lac or saline (vehicle) as outlined in the Schemes in Figures 9A,B via intraperitoneal (i.p.) injection (15 mg/kg). All animals were made hemi-parkinsonian with unilateral, striatal 6-hydroxydopamine (Sigma Aldrich, St. Louis, MO) injections. After surgery, behavioral assessments were done at 2- and 4-weeks post-surgery. 24 h after the last test animals were either euthanized and whole brains were harvested for future biochemical analysis or perfused and brains collected for immunohistochemistry and stereological assessment of tyrosine hydroxylase-positive (TH+) cells remaining in the SNc. In study 1: n = 16 each group were included, and all underwent the behavioral analysis: n = 16, and for the stereology in the SNc, n = 8 each group was used. […]
In order to pharmacologically assess the degree of dopaminergic (DA) depletion in the lesioned side, animals were given amphetamine, an indirectly acting DA agonist and placed into a plexiglass cylinder (38 cm tall × 38 cm across) enclosed in an open field box ([Yue et al., 2011]). Dextro-amphetamine in sterile 0.9% saline (Sigma-Aldrich) was injected i.p. at 5 mg/kg, and rotations were recorded from above using Logitech HD web cameras connected to an Acer Aspire SWS-015 computer. An observer blinded to the groups counted rotations in both the ipsilateral and contralateral rotations for the entire 70 min period. […]

**Q.** `[2H]C([2H])([2H])C([2H])(C([2H])([2H])[2H])[C@]([2H])(NC(=O)[C@H](C)NC(=O)[C@H](C)NC(=O)[C@H](CC(C)C)NC(=O)[C@H](Cc1ccc(O)cc1)NC(=O)[C@H](CCCCN)NC(=O)[C@H](CCCCN)NC(=O)[C@@]([2H])(NC(=O)[C@H](C)NC(=O)[C@H](CC(C)C)NC(=O)[C@H](CCC(N)=O)NC(=O)[C@H](CCCCN)NC(=O)[C@H](CCCNC(=N)N)NC(=O)[C@H](Cc1ccc(O)cc1)NC(=O)[C@H](CCCNC(=N)N)NC(=O)[C@H](CO)NC(=O)[C@H](Cc1ccc(O)cc1)NC(=O)[C@H](CO)NC(=O)[C@H](CC(=O)O)NC(=O)[C@@H](NC(=O)[C@H](Cc1ccccc1)NC(=O)[C@@H](NC(=O)CNC(=O)[C@H](CC(=O)O)NC(=O)[C@H](CO)NC(=O)[C@@H](N)Cc1c[nH]cn1)[C@@H](C)CC)[C@@H](C)O)C([2H])(C([2H])([2H])[2H])C([2H])([2H])[2H])C(=O)N[C@@H](CC(C)C)C(=O)N[C@@H](CO[C@@H]1O[C@H](CO)[C@@H](O[C@@H]2O[C@H](CO)[C@H](O)[C@H](O)[C@H]2O)[C@H](O)[C@H]1O)C(N)=O` [Compound 2LS98Lac] was tested. Which “Amphetamine-induced rotations at 2 weeks post-lesion” value did it give?
**A.** Its value is “did not see a difference”.

**Q.** And the “Amphetamine-induced rotations at 4 weeks post-lesion” value?
**A.** Its value is “did not see a difference”.
